Tests used:
[1] = Evaluation of solubility of two-photon absorption compound in dichloromethane; format: physicochemical; conditions: invention compounds compared with Comparative Compound R-1
Description: Compounds D-1, D-2, D-6 and D-29 of the present invention and Comparative Compound R-1 for dichloromethane were evaluated for the solubility (room temperature).

[2] = Two-photon absorption cross-sectional area by the Z scanning method; format: physicochemical; conditions: measurement wavelength 405 nm; chloroform solution, about 1×10^−3 mol/l; 1 GM = 1 × 10^−50 cm^4 s molecule^−1 photon^−1
Description: The measurement of the two-photon absorption cross-sectional area of the synthesized compound was performed by the Z scanning method described in MANSOOR SHEIK-BAHAE et al., IEEE. Journal of Quantum Electronics, 1990, 26, 760. The Z scanning method is a method widely used as the measuring method of a non-linear optical constant, where in the vicinity of the focus of converged laser beam, a measurement sample is moved along the beam and the change in the quantity of transmitted light is recorded. Since the power density of incident light changes depending upon the position of the sample, when non-linear absorption is present, the quantity of transmitted light attenuates in the vicinity of the focus. The two-photon absorption cross-sectional area was computed by fitting the change in the quantity of transmitted light to a theoretical curve predicted from the incident light intensity, the light converging spot size, the sample thickness and the sample concentration. As the light source for the measurement of two-photon absorption cross-sectional area, a Ti:sapphire pulsed laser (pulse width: 100 fs, repetition: 80 MHz, average output: 1 W, peak power: 100 kW) obtained by combining a […] and a light parametric amplifier was used. As the sample for the measurement of two-photon absorption cross-sectional area, a solution obtained by dissolving the compound in chloroform in a concentration of about 1×10^−3 mol/l was used.
The two-photon absorption cross-sectional areas of Compounds D-1, D-2, D-6 and D-29 of the present invention and Comparative Compound R-1 [recited as Compound D-1 in Patent Document 5 (JP-A-2010-108588)] are shown in Table 1 below.

Row | SMILES | Solubility (in words) [1] | Two-Photon Absorption Cross-Sectional Area [2]
1 | CCCCC(CC)COc1ccc(C(=O)c2ccc(-c3ccc(-c4ccc(-c5ccc(C#N)cc5)cc4)cc3)cc2)cc1 [Compound D-1] | high solubility | 900 GM
2 | COCCOCCOCCOCCOCCOc1ccc(C(=O)c2ccc(-c3ccc(-c4ccc(-c5ccc(C#N)cc5)cc4)cc3)cc2)cc1 [Compound D-2] | high solubility | 860 GM
3 | COc1cc(-c2ccc(-c3ccc(C(=O)c4ccc(OCCOCCOC(C)=O)c(OCCOCCOC(C)=O)c4)cc3)c(OC)c2)ccc1-c1ccc(C(=O)c2ccc(OCCOCCOC(C)=O)c(OCCOCCOC(C)=O)c2)cc1 [Compound D-29] | high solubility | 2000 GM
4 | CCCCC(CC)COc1ccc(C(=O)c2ccc(-c3ccc(-c4ccc(-c5ccc(C#N)cc5)c(OC)c4)cc3OC)cc2)cc1 [Compound D-6] | high solubility | 1140 GM
5 | N#Cc1ccc(-c2ccc(-c3ccc(-c4ccc(C(=O)c5ccccc5)cc4)cc3)cc2)cc1 [Compound R-1, reference compound] | low | 1700 GM
